Experimental data reported in ChEMBL document CHEMBL1145390, “Synthesis and preliminary biological characterization of new semisynthetic derivatives of ramoplanin” (J Med Chem, 2007).
Values after ≈ are worked out from the molar mass of the structure shown.

Legend:
Staphylococcus aureus [1] = assay: Antibacterial activity against methicillin-resistant Staphylococcus aureus clinical isolate after 24 hrs by broth microdilution method; assay type: functional; settings: read-out: MIC
Enterococcus faecium [2] = assay: Antibacterial activity against Enterococcus faecium after 24 hrs by broth microdilution method; assay type: functional; settings: read-out: MIC
Staphylococcus aureus [3] = assay: Antibacterial activity against vancomycin-intermediate resistant Staphylococcus aureus clinical isolate in presence of 30% bovine serum after 24 hrs by broth microdilution method; assay type: functional
Enterococcus faecalis [4] = assay: Antibacterial activity against vancomycin-resistant Enterococcus faecalis in presence of 30% bovine serum after 24 hrs by broth microdilution method; assay type: functional
Escherichia coli = assay: Antibacterial activity against Escherichia coli SKF-12140 after 24 hrs by broth microdilution method; assay type: functional; settings: read-out: MIC
Streptococcus pyogenes = assay: Antibacterial activity against Streptococcus pyogenes C203 after 24 hrs by broth microdilution method; assay type: functional; settings: C203, 24 h, read-out: MIC
Staphylococcus aureus [5] = assay: Antibacterial activity against methicillin-resistant and vancomycin-intermediate resistant Staphylococcus aureus clinical isolate after 24 hrs by broth microdilution method; assay type: functional; settings: read-out: MIC
Staphylococcus aureus [6] = assay: Antibacterial activity against Staphylococcus aureus Smith in presence of 30% bovine serum after 24 hrs by broth microdilution method; assay type: functional
Enterococcus faecium [7] = assay: Antibacterial activity against vancomycin A-resistant Enterococcus faecium clinical isolate after 24 hrs by broth microdilution method; assay type: functional; settings: read-out: MIC
Enterococcus faecalis [8] = assay: Antibacterial activity against vancomycin A-resistant Enterococcus faecalis after 24 hrs by broth microdilution method; assay type: functional; settings: read-out: MIC
Staphylococcus aureus [9] = assay: Antibacterial activity against Staphylococcus aureus Smith after 24 hrs by broth microdilution method; assay type: functional; settings: read-out: MIC
Enterococcus faecalis [10] = assay: Antibacterial activity against Enterococcus faecalis after 24 hrs by broth microdilution method; assay type: functional; settings: read-out: MIC
Staphylococcus aureus [11] = assay: Antibacterial activity against vancomycin-intermediate resistant Staphylococcus aureus clinical isolate after 24 hrs by broth microdilution method; assay type: functional
Candida albicans = assay: Antifungal activity against Candida albicans SKF-2270 after 24 hrs by broth microdilution method; assay type: functional; settings: read-out: MIC
Enterococcus faecium [12] = assay: Antibacterial activity against vancomycin A-resistant Enterococcus faecium clinical isolate in presence of 30% bovine serum after 24 hrs by broth microdilution method; assay type: functional
[13] = Toxicity assessed as hemolysis in erythrocytes at 90 mg/L; assay type: cell-based, Erythrocyte; settings: human, erythrocytes; read-out: Activity
[14] = Toxicity assessed as hemolysis in erythrocytes at 180 mg/L; assay type: cell-based, Erythrocyte; settings: human, erythrocytes; read-out: Activity

Structure (SMILES): CCc1ccccc1CC(=O)N[C@@H](CC(N)=O)C(=O)N[C@@H]1C(=O)N[C@H](c2ccc(O)cc2)C(=O)N[C@H](CCCN)C(=O)N[C@H]([C@@H](C)O)C(=O)N[C@@H](c2ccc(O)cc2)C(=O)N[C@H](c2ccc(O)cc2)C(=O)N[C@@H]([C@H](C)O)C(=O)N[C@@H](Cc2ccccc2)C(=O)N[C@H](CCCN)C(=O)N[C@@H](c2ccc(O[C@H]3O[C@H](CO)[C@@H](O)[C@H](O)[C@@H]3O[C@H]3O[C@H](CO)[C@@H](O)[C@H](O)[C@@H]3O)cc2)C(=O)N[C@H]([C@@H](C)O)C(=O)N[C@@H](c2ccc(O)cc2)C(=O)NCC(=O)N[C@@H](CC(C)C)C(=O)N[C@H](C)C(=O)N[C@@H](c2ccc(O)c(Cl)c2)C(=O)O[C@@H]1C(N)=O
- MIC (Staphylococcus aureus [1]): 0.5 mg/L (≈ 0.195 µM)
- MIC (Enterococcus faecium [2]): ≤ 0.06 mg/L
- MIC (Staphylococcus aureus [3]): 4 mg/L
- MIC (Enterococcus faecalis [4]): 2 mg/L
- MIC (Escherichia coli): > 128 mg/L
- MIC (Streptococcus pyogenes): ≤ 0.125 mg/L
- MIC (Staphylococcus aureus [5]): 2 mg/L (≈ 0.78 µM)
- MIC (Staphylococcus aureus [6]): 1 mg/L
- MIC (Enterococcus faecium [7]): 0.5 mg/L (≈ 0.195 µM)
- MIC (Enterococcus faecalis [8]): 0.5 mg/L (≈ 0.195 µM)
- MIC (Staphylococcus aureus [9]): 0.125 mg/L (≈ 0.0488 µM)
- MIC (Enterococcus faecalis [10]): 0.5 mg/L (≈ 0.195 µM)
- MIC (Staphylococcus aureus [11]): 1 mg/L (≈ 0.39 µM)
- MIC (Candida albicans): > 128 mg/L
- MIC (Enterococcus faecium [12]): 4 mg/L

Structure (SMILES): Cc1ccc(C(=O)N[C@@H](CC(N)=O)C(=O)NC[C@@H]2C(=O)N[C@H](c3ccc(O)cc3)C(=O)N[C@H](CCCN)C(=O)N[C@H](C(C)C)C(=O)N[C@@H](c3ccc(O)cc3)C(=O)N[C@H](c3ccc(O)cc3)C(=O)N[C@@H]([C@@H](C)O)C(=O)N[C@@H](Cc3ccccc3)C(=O)N[C@H](CCCN)C(=O)N[C@@H](c3ccc(O[C@H]4O[C@H](CO)[C@@H](O)[C@H](O)[C@@H]4O[C@H]4O[C@H](CO)[C@@H](O)[C@H](O)[C@@H]4O)cc3)C(=O)N[C@H]([C@@H](C)O)C(=O)N[C@@H](c3ccc(O)cc3)C(=O)NCC(=O)N[C@@H](CC(C)C)C(=O)N[C@H](C)C(=O)N[C@@H](c3ccc(O)c(Cl)c3)C(=O)O[C@@H]2C(N)=O)cc1
- MIC (Staphylococcus aureus [1]): 4 mg/L (≈ 1.57 µM)
- MIC (Enterococcus faecium [2]): 4 mg/L (≈ 1.57 µM)
- hemolysis at 90 mg/L [13]: 5%
- MIC (Escherichia coli): > 32 mg/L
- MIC (Streptococcus pyogenes): < 0.03 mg/L
- MIC (Staphylococcus aureus [5]): 4 mg/L (≈ 1.57 µM)
- MIC (Enterococcus faecium [7]): 2 mg/L (≈ 0.785 µM)
- MIC (Enterococcus faecalis [8]): 2 mg/L (≈ 0.785 µM)
- MIC (Staphylococcus aureus [9]): 4 mg/L (≈ 1.57 µM)
- hemolysis at 180 mg/L [14]: 3%
- MIC (Enterococcus faecalis [10]): 2 mg/L (≈ 0.785 µM)
- MIC (Staphylococcus aureus [11]): 8 mg/L (≈ 3.14 µM)
- MIC (Candida albicans): > 32 mg/L

Structure (SMILES): CC(C)C[C@@H]1NC(=O)CNC(=O)[C@H](c2ccc(O)cc2)NC(=O)[C@@H]([C@@H](C)O)NC(=O)[C@H](c2ccc(O[C@H]3O[C@H](CO)[C@@H](O)[C@H](O)[C@@H]3O[C@H]3O[C@H](CO)[C@@H](O)[C@H](O)[C@@H]3O)cc2)NC(=O)[C@@H](CCCN)NC(=O)[C@H](Cc2ccccc2)NC(=O)[C@H]([C@@H](C)O)NC(=O)[C@@H](c2ccc(O)cc2)NC(=O)[C@H](c2ccc(O)cc2)NC(=O)[C@@H](C(C)C)NC(=O)[C@@H](CCCN)NC(=O)[C@@H](c2ccc(O)cc2)NC(=O)[C@@H](CNC(=O)[C@H](CC(N)=O)NC(=O)Cc2ccc(Cl)cc2)[C@@H](C(N)=O)OC(=O)[C@H](c2ccc(O)c(Cl)c2)NC(=O)[C@@H](C)NC1=O
- MIC (Staphylococcus aureus [1]): 0.5 mg/L (≈ 0.194 µM)
- MIC (Enterococcus faecium [2]): 1 mg/L (≈ 0.387 µM)
- hemolysis at 90 mg/L [13]: 0%
- MIC (Escherichia coli): > 32 mg/L
- MIC (Streptococcus pyogenes): ≤ 0.03 mg/L
- MIC (Staphylococcus aureus [5]): 4 mg/L (≈ 1.55 µM)
- MIC (Enterococcus faecium [7]): 1 mg/L (≈ 0.387 µM)
- MIC (Enterococcus faecalis [8]): 0.5 mg/L (≈ 0.194 µM)
- MIC (Staphylococcus aureus [9]): 0.5 mg/L (≈ 0.194 µM)
- hemolysis at 180 mg/L [14]: 0%
- MIC (Enterococcus faecalis [10]): 0.5 mg/L (≈ 0.194 µM)
- MIC (Staphylococcus aureus [11]): 2 mg/L (≈ 0.774 µM)
- MIC (Candida albicans): > 32 mg/L
